Results as given in BindingDB's records for patent US10626094 (Sanford Burnham Prebys Medical Discovery Institute, 2020).

Target: T1, Low molecular weight phosphotyrosine protein phosphatase (Homo sapiens, UniProt P24666)
T1 sequence (P24666 whole entry): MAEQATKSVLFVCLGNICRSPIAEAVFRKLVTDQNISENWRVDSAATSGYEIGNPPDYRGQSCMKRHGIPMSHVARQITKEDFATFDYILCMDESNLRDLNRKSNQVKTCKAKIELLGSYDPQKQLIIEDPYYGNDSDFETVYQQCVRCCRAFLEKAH
Test: LMPTP Primary Screening Protocol
Method: 1. Prepare Reagents as described in section F. Recipe.2. Using LabCyte Echo, transfer 60 nL from 2 mM test compound source plate into assay plate Col. 5-48 (final concentration of test compounds is 20 μM). 60 nL of DMSO should be transferred to col. 1-4 for positive and negative control wells.3. Spin plates at 1000 rpm for 1 minute in centrifuge.4. Using the Beckman Coulter Bioraptr, add 3 μL/well of control buffer to columns 1 and 2.5. Using the Bioraptr, add 3 μL/well of enzyme solution to col. […] Using the Bioraptr, add 3 μL/well of substrate solution to col. 1-48.7. Spin plates at 1000 rpm for 1 minute in centrifuge.8. Incubate plates in the dark at room temperature for 50 minutes.9. Read plates on PerkinElmer Viewlux using a FI protocol.

`O=C(c1ccc(-c2cc(NCCCC3CCCNC3)c3ccccc3n2)cc1)N1CCCC1` (stereo not given) [4-{4-[(3-piperidylpropyl)amino](2-quinolyl)}phenyl pyrrolidinyl ketone] was tested, and the IC50 was 0.802 to 5 µM.

`c1ccc(-c2cc(NCCN3CCOCC3)c3ccccc3n2)cc1` [(2-morpholin-4-ylethyl)(2-phenyl(4-quinolyl))amine] showed an IC50 of 0.802 to 5 µM.

With `CC(C)NC(=O)c1ccc(-c2cc(NCCCC3CCCNC3)c3ccccc3n2)cc1` (stereo not given) [N-(methylethyl)(4-{4-[(3-piperidylpropyl)amino](2-quinolyl)}phenyl)carboxamide] the IC50 was 0.802 to 5 µM.

With `CCN1CCN(Cc2ccc(NC3CC(c4ccc(OC)cc4)Nc4ccccc43)cc2)CC1` (stereo not given) [US10626094, Example I206] the IC50 was 0.802 to 5 µM.

With `Clc1cccc(Cl)c1-c1cc(NCCCC2CCCNC2)c2ccccc2n1` (stereo not given) [US11220486, Compound I100] the IC50 was greater than 5 µM.
